Laboratory results as given in PubChem BioAssay (NCI).
“And” between values parts separate entries of the source, which are not always exact repeats. Equal values may be shown once.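 Where inhibition never reached the appropriate level, the endpoint shown equals the highest concentration tested. Otherwise, values were interpolated linearly from a five-concentration, 48-hour dose response in 96-well plates. GI50 = concentration required for 50% inhibition of growth. The concentration for full growth arrest is given as TGI.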

Tests used:
Test in all cases: growth of human tumour cells (NCI), 48 h
BT-549 breast = test system: BT-549 breast
HCC-2998 colon = test system: HCC-2998 colon
HT29 colon = test system: HT29 colon
K-562 leukemia = test system: K-562 leukemia
OVCAR-8 ovarian = test system: OVCAR-8 ovarian
RPMI-8226 leukemia = test system: RPMI-8226 leukemia
SK-MEL-28 melanoma = test system: SK-MEL-28 melanoma
SK-OV-3 ovarian = test system: SK-OV-3 ovarian
SN12C renal = test system: SN12C renal
SNB-19 CNS = test system: SNB-19 CNS

Structure (SMILES) | GI50 (BT-549 breast) | TGI (BT-549 breast) | GI50 (HCC-2998 colon) | TGI (HCC-2998 colon) | GI50 (HT29 colon) | TGI (HT29 colon) [µM] | GI50 (K-562 leukemia) | TGI (K-562 leukemia) [µM] | GI50 (OVCAR-8 ovarian) | TGI (OVCAR-8 ovarian) [µM] | GI50 (RPMI-8226 leukemia) | TGI (RPMI-8226 leukemia) | GI50 (SK-MEL-28 melanoma) | TGI (SK-MEL-28 melanoma) | GI50 (SK-OV-3 ovarian) | TGI (SK-OV-3 ovarian) [µM] | GI50 (SN12C renal) | TGI (SN12C renal) [µM] | GI50 (SNB-19 CNS) | TGI (SNB-19 CNS) [µM]
CC1(C)N=C(N)N=C(N)N1c1ccc(Cl)cc1 | 14.6 µM | > 100 µM | 2.01 µM | 11.1 µM | 1.19 µM | > 100 | 1.3 µM | > 100 | 2.17 µM | > 100 | > 100 µM | > 100 µM | 53.5 µM | > 100 µM | 43 µM | > 100 | 7.25 µM | > 100 | 16.7 µM | > 100
COC(=O)c1cc2oc(/C=C3/SC(=S)N(N)C3=O)cc2n1Cc1ccccc1 | 3.5 µM | 26.7 µM | 3.89 µM | 19.1 µM | 7.47 µM | 19.4 | 2.08 µM | > 21.7 | 3.24 µM | 22.7 | > 27.5 µM | > 100 µM | 7.48 µM | > 30.1 µM | 4.25 µM | 20 | 12 µM | > 43.3 | 5.79 µM | 35.2
CCc1cnn2c(NCc3ccc[n+]([O-])c3)cc(N3CCCC[C@H]3CCO)nc12 | < 0.01 µM and 0.00331 µM | < 0.0183 µM and 0.0305 µM | < 0.01 µM and 0.0045 µM | 0.0492 µM and 0.0347 µM | < 0.01 µM and 0.00441 µM | – | 0.0155 µM and 0.00449 µM | > 100 | < 0.01 µM and 0.00446 µM | > 100 | < 0.01 µM and 0.00668 µM | 0.0244 µM and 0.0436 µM | < 0.01 µM and 0.00493 µM | 0.0297 µM and 0.0713 µM | 0.0391 µM and 0.0338 µM | > 100 | < 0.01 µM and 0.00406 µM | > 100 | < 0.0107 µM and 0.00366 µM | > 100
CC(C)(c1ccccc1)c1cc(O)c(C(C)(C)c2ccccc2)cc1O | 1.57 µM | 5.31 µM | 2.98 µM | 12.8 µM | 1.64 µM | 8.91 | 1.85 µM | 12.2 | 3.75 µM | 20.9 | 1.37 µM | 14.3 µM | 2.81 µM | 14 µM | 3.55 µM | 14.5 | 2.46 µM | 11.5 | 2.91 µM | 12.1
Cc1ccc(C=C2C(Cl)=C(Cl)C(Cl)=C2Cl)cc1 | 0.882 µM | 3.32 µM | 1.47 µM | 2.93 µM | 0.796 µM | 2.89 | 0.202 µM | 0.522 | 0.418 µM | 9.45 | 0.224 µM | 0.653 µM | 1.25 µM | 2.64 µM | 2.03 µM | 4.62 | 0.832 µM | 3.02 | 1.33 µM | 2.68
C#Cc1cccc(Nc2ncnc3ccc(OCCCCNCCS(C)(=O)=O)cc23)c1 | 8.33 µM | > 25 µM | 7.83 µM | > 25 µM | 5.44 µM | 12.5 | 6.25 µM | 14.6 | 7.56 µM | > 25 | 4.59 µM | 15.3 µM | 4.58 µM | 8.56 µM | 1.28 µM | > 25 | 5.89 µM | > 25 | 15.2 µM | > 25
COc1ccc(NC2=C(I)C(=O)c3ncccc3C2=O)cc1 | 1.27 µM | 2.59 µM | 1.45 µM | 3.01 µM | 3.07 µM | 10.2 | 0.533 µM | 5.19 | 1.84 µM | 5.79 | 1.17 µM | 3.85 µM | 1.66 µM | 3.3 µM | 1.36 µM | 2.72 | 1.05 µM | 2.27 | 1.18 µM | 3.29
N#Cc1c(NC(=O)c2ccc(F)cc2)sc2c1CCCC2 | > 25 µM | > 25 µM | > 25 µM | > 25 µM | > 25 µM | > 25 | > 25 µM | > 25 | > 25 µM | > 25 | > 25 µM | > 25 µM | > 25 µM | > 25 µM | > 25 µM | > 25 | > 25 µM | > 25 | > 25 µM | > 25
COC1=C(C)C(=O)c2c(c(CCCl)c3n2CCC3OC(C)=O)C1=O (centres undefined) | 0.149 µM | 0.652 µM | 0.204 µM | 0.582 µM | 0.152 µM | 1.89 | 1.65 µM | > 33.1 | 0.897 µM | 19.4 | 2.84 µM | 27.3 µM | 0.31 µM | 1.09 µM | 0.279 µM | 0.983 | 0.391 µM | 15.4 | 0.272 µM | 18.2
CCOC(=O)C1=C(C)NC(=O)NC1CN1C(=O)c2ccccc2C1=O (centres undefined) | > 100 µM | > 100 µM | > 100 µM | > 100 µM | > 100 µM | > 100 | > 100 µM | > 100 | > 100 µM | > 100 | > 100 µM | > 100 µM | > 100 µM | > 100 µM | > 100 µM | > 100 | > 100 µM | > 100 | > 100 µM | > 100
